Patent publication EP0702683B1, “06-SUBSTITUTED GUANINE DERIVATIVES, A PROCESS FOR THEIR PREPARATION AND THEIR USE IN TREATING TUMOUR CELLS” (Cancer Research Technology Limited, priority 1993, dated 1994)
pIC50: −log10 of the molar value. Entries after “also recorded” stand apart in the source; their conditions may differ.

What was measured:
[1] = tested on: Chinese hamster V79 cells; test: Growth inhibition of V79 cells by inactivator alone; type: cell-based
Experimental: In order to assess the effects on cell growth alone, Xeroderma pigmentosum cells and Chinese Hamster V79 cells were exposed to increasing concentrations (up to 600µM) of selected inactivators for 2h at 37°. In some cases, the inactivators were allowed to undergo hydrolysis at 37°C for 20 hours and then added to […] in order to assess the extent to which the decomposition products of the agents might inhibit cell growth. After 6 days the extent of cell growth was determined as described above.

[2] = target: T1, ATase (Cricetulus griseus, UniProt P26186); test: Inactivation of ATase activity in Hamster +120 cells; type: cell-based, Chinese hamster; conditions: 2 hours at 37°C, read-out: Inactivation of ATase in Mammalian Cells I50(µM) Hamster + 120
T1 construct: endogenous in cells; host or cells: Hamster +120 (V79 RJKO subline)
T1 sequence (P26186 1-209): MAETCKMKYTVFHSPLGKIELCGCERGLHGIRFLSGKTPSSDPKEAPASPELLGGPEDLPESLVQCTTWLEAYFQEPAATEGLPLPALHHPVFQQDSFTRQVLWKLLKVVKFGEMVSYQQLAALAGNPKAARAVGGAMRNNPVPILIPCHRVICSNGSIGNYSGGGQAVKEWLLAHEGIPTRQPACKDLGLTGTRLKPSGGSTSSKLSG
Experimental: Mammalian cells were cultured under standard conditions. For example, Raji (a human lymphoblastoid cell line from a Burkitt's lymphoma) cells were grown in suspension culture in RPMI medium supplemented with 10% horse serum. […]
Cells were diluted to 10^6/ml in culture medium containing either the appropriate concentration of inactivator or an equivalent volume of vehicle (DMSO). […] ATase activity was determined as described above, in duplicate sonicated cell extracts and expressed as the percentage activity remaining based on that present in the untreated controls (for example 350-450 fm/mg in Raji cells).

[3] = target: T2, ATase (Homo sapiens, UniProt P16455); test: In vitro ATase inactivation assay with purified recombinant human ATase; type: biochemical; design: made in house; conditions: for effectiveness in the in vitro ATase inactivation assay compared with BeG: Figure 1, in words
T2 sequence (P16455 1-207): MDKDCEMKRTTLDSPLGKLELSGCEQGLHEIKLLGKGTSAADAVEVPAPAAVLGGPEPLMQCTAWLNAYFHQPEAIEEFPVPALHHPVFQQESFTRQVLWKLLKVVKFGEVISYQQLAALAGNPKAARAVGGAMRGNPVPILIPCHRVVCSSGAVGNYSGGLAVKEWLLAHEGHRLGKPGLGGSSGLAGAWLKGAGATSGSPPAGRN
Experimental: The cDNA cloning and overexpression of the human ATase has been reported previously^23. Purification of the recombinant proteins was achieved either by affinity chromatography through a DNA-cellulose column as described by Wilkinson et al.,^25, 26, or by DEAE-cellulose ion-exchange chromatography. For the latter, the ATase protein was partially purified by ammonium sulphate precipitation (30 - 60%) and dialysed against 10 mM Tris-HCl pH 7.5, 1 mM DTT, 2 mM EDTA, 10% glycerol, before loading on a DEAF-cellulose column. The ATase was then eluted with a 0-0.1 M NaCl gradient.
Compounds to be tested were dissolved in DMSO to a final concentration of 10 mM and diluted just before use in buffer I containing 1 mg/ml bovine serum albumin (IBSA). Recombinant ATase was diluted in IBSA and titrated in order that the reaction be conducted under ATase, and not substrate, limiting conditions. In each assay, fixed amounts of ATase (60-75 fmol) were incubated with varying amounts of 0^6-benzylguanine, or test compound in a total volume of 200 µl of IBSA containing 10 µg of calf thymus DNA at 37°C for 1 hour. The [^3H]-methylated-DNA substrate (100 µl containing 6.7 µg of DNA and 100 fmol of 0^6-methylguanine) was added and incubation continued at 37° for 1 hour, until the reaction was completed. Following acid hydrolysis of the DNA as previously described^21 the [^3H]-methylated protein was recovered and quantitated by liquid scintillation counting. Samples were typically assayed in duplicate and experiments repeated several times. I50 is the concentration of inactivator required to produce a 50% reduction in ATase activity.

[4] = tested on: human bone marrow cells; test: Sensitization of bone marrow cells to temozolomide (GM-CFC assay); type: cell-based; conditions: for sensitization effect on human bone marrow cells to temozolomide, compared with 0^6-benzylguanine: 10µM inactivator, Figure 14, in words
From the text: For the granulocyte/macrophage colony-forming cell (GM-CFC) assay primary human bone marrow samples were obtained from patients undergoing cardiothoracic surgery. […] The colonies represented precursor cells of the granulocyte/macrophage lineage (huGM-CFC). Survival was expressed as a % of the number of colonies at zero dose temozolomide.

[5] = tested on: Raji cells; test: Sensitization of Raji cells to temozolomide (XTT assay); type: cell-based, human
Experimental: Following a 2 hour incubation at 37°C, medium containing either increasing doses of BCNU, temozolomide or equivalent vehicle was added and the cells allowed to grow for 6 days. At this time XTT solution was added and the cells incubated for a further 4 hours at 37°C. The resulting red/orange formazan reaction product was quantified by measuring absorption at 450nm on a microtitre platereader.

[6] = Toxicity of inactivator in combination with BCNU in xenograft-bearing mice (survival); type: in vivo, nude mice; conditions: Figs. 9-13, in words
Experimental: 0X6 OPT, England (OLAC mice). […] For this reason lower doses were administered.
Xenograft tumour measurements were taken every 1-2 days by workers using digital calipers. Tumour volume was calculated using the formula (h x w x 1) π/6. The experimental animals were also weighed every 1-2 days. Measurements continued until tumours in the control animals reached the maximum allowable volume (i.e. 1cm x 1cm x 1cm).

| SMILES | toxic concentrations in V79 cells relative to those at which sensitization to BCNU was observed ([1]; Figs 5 & 6) | IC50 [2] [µM] | pIC50 [3] | effectiveness in the in vitro ATase inactivation assay compared with BeG [3] | sensitization effect on human bone marrow cells to temozolomide, compared with 0^6-benzylguanine ([4]; patient D) | sensitization effect on human bone marrow cells to temozolomide, compared with 0^6-benzylguanine ([4]; patients C & E) | sensitization of GM-CFCs in human bone marrow samples to the toxic effects of temozolomide ([4]; three samples tested (BeG: all three; B.4205: two of these), Fig. 14, in words) | doses producing some growth inhibition of V79 cells ([1]; inactivator alone, up to 600µM, 2h at 37°, Figure 5) | sensitising Raji cells to the growth inhibitory effects of temozolomide, compared with BeG ([5]; 0.1uM inactivator, Figure 3, in words) | dose response of sensitization of Raji cells to temozolomide ([5]; inactivator 0.1 to 5.0µM, Figures 3 and 4, in words) | toxicity in combination with BCNU in nude mice [6] |
| --- | --- | --- | --- | --- | --- | --- | --- | --- | --- | --- | --- |
| Nc1nc(OCc2ccco2)c2nc[nH]c2n1 [B.4203, O^6-furfurylguanine] | at least 100 times | 0.12 | 7.10 | not as effective as BeG |  |  |  |  |  |  |  |
| Nc1nc(OCc2cccs2)c2nc[nH]c2n1 [B.4205, O^6-thenylguanine] |  |  | 7.74 | considerably better | no differential | smaller sensitization effect than 0^6-benzylguanine | little or no sensitization | no such effects were seen | more effective than BeG | lack of dose response | substantially less toxic; also recorded: very little effect |
